Our source for the IC50 values is US10428044B2, “3-amino-1,5,6,7-tetrahydro-4H-indol-4-ones” (Bayer Pharma Aktiengesellschaft, priority 2014, dated 2019).

pIC50: −log10 of the molar value.

(recombinant) catalytic domain of human Bub1 (amino acids 704-1085), sequence (O43683 704-1085): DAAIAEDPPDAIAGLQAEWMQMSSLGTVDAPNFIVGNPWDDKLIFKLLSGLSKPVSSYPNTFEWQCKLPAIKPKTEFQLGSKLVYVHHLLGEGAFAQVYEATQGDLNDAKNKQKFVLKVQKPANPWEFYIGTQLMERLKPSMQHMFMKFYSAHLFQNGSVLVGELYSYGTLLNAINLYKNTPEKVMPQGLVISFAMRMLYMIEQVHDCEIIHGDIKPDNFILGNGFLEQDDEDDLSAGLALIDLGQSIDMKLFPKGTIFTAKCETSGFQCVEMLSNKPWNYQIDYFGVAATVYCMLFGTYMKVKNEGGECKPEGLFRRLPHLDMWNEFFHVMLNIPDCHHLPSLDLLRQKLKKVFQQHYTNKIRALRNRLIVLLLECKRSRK

In the test the target is (recombinant) catalytic domain of human Bub1 (amino acids 704-1085) (Homo sapiens (Human), UniProt O43683). Briefly: Bub1 kinase assay (TR-FRET). It is filed as biochemical. To be noted: ATP 10 μM final, peptide substrate 1 μM final, 60 min at 22° C., read-out: Biological Assay: Bub1 kinase assay median IC50. An outline of the steps:
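Compounds were serially diluted 1:3.4 from 2 mM DMSO stocks and incubated with the enzyme reaction for 60 min at 22° C. The reaction was stopped with EDTA, and biotinylated peptide phosphorylation was read by TR-FRET using Eu anti-mouse IgG, anti-phosphoserine antibody and streptavidin-XL665. IC50 was fitted by 4-parameter logistic to inhibition normalized to no-inhibitor and no-enzyme controls.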
(TR-FRET usually uses a lanthanide donor and a delayed reading to cut background.)
For the compound `COc1ccccc1Nc1c(-c2ccncc2)[nH]c2c1C(=O)CC(C)(C)C2` [Example 124, 3-[(2-methoxyphenyl)amino]-6,6-dimethyl-2-(pyridin-4-yl)-1,5,6,7-tetrahydro-4H-indol-4-one], the pIC50 is 6.81.
The result for `CC1(C)CC(=O)c2c([nH]c(-c3ccncc3)c2Nc2cccc(-c3cccs3)c2)C1` [Example 420, 6,6-dimethyl-2-(pyridin-4-yl)-3-{[3-(thiophen-2-yl)phenyl]amino}-1,5,6,7-tetrahydro-4H-indol-4-one] reads 7.60; that for `CCCCOCC(=O)Nc1cc(-c2[nH]c3c(c2Nc2ccccc2)C(=O)CCC3)ccn1` [Example 333, 2-butoxy-N-{4-[4-oxo-3-(phenylamino)-4,5,6,7-tetrahydro-1H-indol-2-yl]pyridin-2-yl}acetamide], 8.13; that for `CC1(C)CC(=O)c2c([nH]c(-c3ccncc3C#N)c2Nc2cccc(F)c2)C1` [Example 198, 4-{3-[(3-fluorophenyl)amino]-6,6-dimethyl-4-oxo-4,5,6,7-tetrahydro-1H-indol-2-yl}pyridine-3-carbonitrile], 4.96.
The result for `CC1(C)CC(=O)c2c([nH]c(-c3ccncc3)c2Nc2cccc(Oc3ccccc3)c2)C1` [Example 421, 6,6-dimethyl-3-[(3-phenoxyphenyl)amino]-2-(pyridin-4-yl)-1,5,6,7-tetrahydro-4H-indol-4-one] reads 6.70.
In the case of `CC1(C)CC(=O)c2c([nH]c(-c3ccnc(N)c3)c2Nc2ccccc2)C1` [Example 122, 2-(2-aminopyridin-4-yl)-6,6-dimethyl-3-(phenylamino)-1,5,6,7-tetrahydro-4H-indol-4-one] it was 7.24.
As to `COC(C)(C)C(=O)Nc1cc(-c2[nH]c3c(c2Nc2ccccc2)C(=O)CCC3)ccn1` [Example 326, 2-methoxy-2-methyl-N-{4-[4-oxo-3-(phenylamino)-4,5,6,7-tetrahydro-1H-indol-2-yl]pyridin-2-yl}propanamide], the pIC50 was 6.22.
In the case of `Cc1cc(OCC(=O)Nc2cc(-c3[nH]c4c(c3Nc3ccccc3)C(=O)CCC4)ccn2)no1` [Example 346, 2-[(5-methyl-1,2-oxazol-3-yl)oxy]-N-{4-[4-oxo-3-(phenylamino)-4,5,6,7-tetrahydro-1H-indol-2-yl]pyridin-2-yl}acetamide] it was 8.01; in that of `CC(=O)Nc1cc(-c2[nH]c3c(c2Nc2ccc(F)c(F)c2)C(=O)CCC3)ccn1` [Example 315, N-(4-{3-[(3,4-difluorophenyl)amino]-4-oxo-4,5,6,7-tetrahydro-1H-indol-2-yl}pyridin-2-yl)acetamide], 7.00.
The result for `O=C1CCC(O)c2[nH]c(-c3ccncc3)c(Nc3ccccc3)c21` (stereo not drawn) [Example 446, 7-hydroxy-3-(phenylamino)-2-(pyridin-4-yl)-1,5,6,7-tetrahydro-4H-indol-4-one] reads 7.40; that for `COc1cc(Nc2c(-c3ccncc3)[nH]c3c2C(=O)CC(C)(C)C3)ccc1F` [Example 110, 3-[(4-fluoro-3-methoxyphenyl)amino]-6,6-dimethyl-2-(pyridin-4-yl)-1,5,6,7-tetrahydro-4H-indol-4-one], 6.63.
As for `CC1(C)CC(=O)c2c([nH]c(-c3ccncc3)c2Nc2cc(Cl)cc(Cl)c2)C1` [Example 77, 3-[(3,5-dichlorophenyl)amino]-6,6-dimethyl-2-(pyridin-4-yl)-1,5,6,7-tetrahydro-4H-indol-4-one], the negative-log IC50 (pIC50) is 5.81.
In the case of `O=C1CCCc2[nH]c(-c3ccncc3OCC(F)(F)F)c(Nc3ccccc3)c21` [Example 458, 3-(phenylamino)-2-[3-(2,2,2-trifluoroethoxy)pyridin-4-yl]-1,5,6,7-tetrahydro-4H-indol-4-one], the pIC50 was 7.10.
In the case of `O=C1CCCc2[nH]c(-c3ccnc(NC(=O)[C@H]4C[C@H]4F)c3)c(Nc3ccccc3)c21` [Example 253, (1R,2R)-2-fluoro-N-{4-[4-oxo-3-(phenylamino)-4,5,6,7-tetrahydro-1H-indol-2-yl]pyridin-2-yl}cyclopropanecarboxamide] it was 7.63.
For the compound `CC1(C)CC(=O)c2c([nH]c(-c3ccnc4c3OCCO4)c2Nc2ccccc2)C1` [Example 210, 2-(2,3-dihydro[1,4]dioxino[2,3-b]pyridin-8-yl)-6,6-dimethyl-3-(phenylamino)-1,5,6,7-tetrahydro-4H-indol-4-one], the pIC50 was 6.89.
In the case of `O=C1CCCc2[nH]c(-c3ccnc(NC(=O)C4(F)CC4)c3)c(Nc3ccccc3)c21` [Example 261, 1-fluoro-N-{4-[4-oxo-3-(phenylamino)-4,5,6,7-tetrahydro-1H-indol-2-yl]pyridin-2-yl}cyclopropanecarboxamide] it was 7.38.
The result for `CC1(C)CC(=O)c2c([nH]c(-c3ccnc(NCCC(F)(F)F)c3)c2Nc2ccccc2)C1` [Example 362, 6,6-dimethyl-3-(phenylamino)-2-{2-[(3,3,3-trifluoropropyl)amino]pyridin-4-yl}-1,5,6,7-tetrahydro-4H-indol-4-one] reads 6.41; that for `O=C(COCC(F)(F)F)Nc1cc(-c2[nH]c3c(c2Nc2ccccc2)C(=O)CCC3)ccn1` [Example 502, N-{4-[4-oxo-3-(phenylamino)-4,5,6,7-tetrahydro-1H-indol-2-yl]pyridin-2-yl}-2-(2,2,2-trifluoroethoxy)acetamide], 7.84.
`CC(=O)N(C)c1cc(-c2[nH]c3c(c2Nc2ccccc2)C(=O)CC(C)(C)C3)ccn1` [Example 240, N-{4-[6,6-dimethyl-4-oxo-3-(phenylamino)-4,5,6,7-tetrahydro-1H-indol-2-yl]pyridin-2-yl}-N-methylacetamide]: the pIC50 was 5.17.
Take `CC1(C)CC(=O)c2c([nH]c(-c3ccncc3)c2Nc2ccc3ccsc3c2)C1` [Example 130, 3-(1-benzothiophen-6-ylamino)-6,6-dimethyl-2-(pyridin-4-yl)-1,5,6,7-tetrahydro-4H-indol-4-one]: the pIC50 is 7.24.
The result for `CC(Nc1cc(-c2[nH]c3c(c2Nc2ccccc2)C(=O)CC(C)(C)C3)ccn1)C(F)F` (stereo not drawn) [Example 363, 2-(2-{[1,1-difluoropropan-2-yl]amino}pyridin-4-yl)-6,6-dimethyl-3-(phenylamino)-1,5,6,7-tetrahydro-4H-indol-4-one] reads 6.68; that for `CC1(C)CC(=O)c2c([nH]c(-c3ccnc(F)c3)c2Nc2ccccc2)C1` [Example 213, 2-(2-fluoropyridin-4-yl)-6,6-dimethyl-3-(phenylamino)-1,5,6,7-tetrahydro-4H-indol-4-one], 7.91.
For `O=C1CC2(CC2)Cc2[nH]c(-c3ccnc(NC(=O)C4CC4)c3)c(Nc3ccccc3)c21` [Example 294, N-{4-[4′-oxo-3′-(phenylamino)-1′,4′,5′,7′-tetrahydrospiro[cyclopropane-1,6′-indol]-2′-yl]pyridin-2-yl}cyclopropanecarboxamide], the pIC50 was 8.04.
The result for `O=C(NCC(F)(F)F)Nc1cc(-c2[nH]c3c(c2Nc2ccccc2)C(=O)CCC3)ccn1` [Example 382, 1-{4-[4-oxo-3-(phenylamino)-4,5,6,7-tetrahydro-1H-indol-2-yl]pyridin-2-yl}-3-(2,2,2-trifluoroethyl)urea] reads 7.08.
In the case of `O=C(Nc1cc(-c2[nH]c3c(c2Nc2ccccc2)C(=O)CCC3)ccn1)c1cc(F)cc(F)c1` [Example 452, 3,5-difluoro-N-{4-[4-oxo-3-(phenylamino)-4,5,6,7-tetrahydro-1H-indol-2-yl]pyridin-2-yl}benzamide] it was 7.72; in that of `O=C1CCCc2[nH]c(-c3ccncc3)c(Nc3ccc(F)c(F)c3)c21` [Example 38, 3-[(3,4-difluorophenyl)amino]-2-(pyridin-4-yl)-1,5,6,7-tetrahydro-4H-indol-4-one], 8.10; in that of `CC1(C)CC(=O)c2c([nH]c(-c3ccncc3OCCO)c2Nc2ccccc2)C1` [Example 409, 2-[3-(2-hydroxyethoxy)pyridin-4-yl]-6,6-dimethyl-3-(phenylamino)-1,5,6,7-tetrahydro-4H-indol-4-one], 8.02.
With `O=C1CCCc2[nH]c(-c3ccnc(C(F)F)c3)c(Nc3ccccc3)c21` [Example 401, 2-[2-(difluoromethyl)pyridin-4-yl]-3-(phenylamino)-1,5,6,7-tetrahydro-4H-indol-4-one], the negative-log IC50 (pIC50) was 6.45.
Turning to `C=CCOCC(=O)Nc1cc(-c2[nH]c3c(c2Nc2ccccc2)C(=O)CCC3)ccn1` [Example 335, N-{4-[4-oxo-3-(phenylamino)-4,5,6,7-tetrahydro-1H-indol-2-yl]pyridin-2-yl}-2-(prop-2-en-1-yloxy)acetamide], the pIC50 was 8.00.
In the case of `O=C(CCc1ccccc1)Nc1cc(-c2[nH]c3c(c2Nc2ccccc2)C(=O)CCC3)ccn1` [Example 235, N-{4-[4-oxo-3-(phenylamino)-4,5,6,7-tetrahydro-1H-indol-2-yl]pyridin-2-yl}-3-phenylpropanamide] it was 7.21; in that of `Cc1noc(COCC(=O)Nc2cc(-c3[nH]c4c(c3Nc3ccccc3)C(=O)CCC4)ccn2)n1` [Example 349, 2-[(3-methyl-1,2,4-oxadiazol-5-yl)methoxy]-N-{4-[4-oxo-3-(phenylamino)-4,5,6,7-tetrahydro-1H-indol-2-yl]pyridin-2-yl}acetamide], 8.09.
`CC1(C)CC(=O)c2c([nH]c(-c3ccnc(NC(=O)COCc4ccccc4)c3)c2Nc2ccccc2)C1` [Example 476, 2-(benzyloxy)-N-{4-[6,6-dimethyl-4-oxo-3-(phenylamino)-4,5,6,7-tetrahydro-1H-indol-2-yl]pyridin-2-yl}acetamide]: the pIC50 was 8.09.
The result for `CC1(C)CC(=O)c2c([nH]c(-c3ccncc3)c2Nc2ccc3ccoc3c2)C1` [Example 26, 3-(1-benzofuran-6-ylamino)-6,6-dimethyl-2-(pyridin-4-yl)-1,5,6,7-tetrahydro-4H-indol-4-one] reads 7.49.

Usually pIC50 stands for the negative decadic logarithm of the IC50, by convention in mol/L.
